Target: Nav 1.7 (Homo sapiens (Human), UniProt Q15858)
Experiment: in-vitro Nav 1.7 PX (IC50)
Format: cell-based
Details: in-vitro Nav 1.7 PX data

Chain of Nav 1.7 (Q15858 whole entry): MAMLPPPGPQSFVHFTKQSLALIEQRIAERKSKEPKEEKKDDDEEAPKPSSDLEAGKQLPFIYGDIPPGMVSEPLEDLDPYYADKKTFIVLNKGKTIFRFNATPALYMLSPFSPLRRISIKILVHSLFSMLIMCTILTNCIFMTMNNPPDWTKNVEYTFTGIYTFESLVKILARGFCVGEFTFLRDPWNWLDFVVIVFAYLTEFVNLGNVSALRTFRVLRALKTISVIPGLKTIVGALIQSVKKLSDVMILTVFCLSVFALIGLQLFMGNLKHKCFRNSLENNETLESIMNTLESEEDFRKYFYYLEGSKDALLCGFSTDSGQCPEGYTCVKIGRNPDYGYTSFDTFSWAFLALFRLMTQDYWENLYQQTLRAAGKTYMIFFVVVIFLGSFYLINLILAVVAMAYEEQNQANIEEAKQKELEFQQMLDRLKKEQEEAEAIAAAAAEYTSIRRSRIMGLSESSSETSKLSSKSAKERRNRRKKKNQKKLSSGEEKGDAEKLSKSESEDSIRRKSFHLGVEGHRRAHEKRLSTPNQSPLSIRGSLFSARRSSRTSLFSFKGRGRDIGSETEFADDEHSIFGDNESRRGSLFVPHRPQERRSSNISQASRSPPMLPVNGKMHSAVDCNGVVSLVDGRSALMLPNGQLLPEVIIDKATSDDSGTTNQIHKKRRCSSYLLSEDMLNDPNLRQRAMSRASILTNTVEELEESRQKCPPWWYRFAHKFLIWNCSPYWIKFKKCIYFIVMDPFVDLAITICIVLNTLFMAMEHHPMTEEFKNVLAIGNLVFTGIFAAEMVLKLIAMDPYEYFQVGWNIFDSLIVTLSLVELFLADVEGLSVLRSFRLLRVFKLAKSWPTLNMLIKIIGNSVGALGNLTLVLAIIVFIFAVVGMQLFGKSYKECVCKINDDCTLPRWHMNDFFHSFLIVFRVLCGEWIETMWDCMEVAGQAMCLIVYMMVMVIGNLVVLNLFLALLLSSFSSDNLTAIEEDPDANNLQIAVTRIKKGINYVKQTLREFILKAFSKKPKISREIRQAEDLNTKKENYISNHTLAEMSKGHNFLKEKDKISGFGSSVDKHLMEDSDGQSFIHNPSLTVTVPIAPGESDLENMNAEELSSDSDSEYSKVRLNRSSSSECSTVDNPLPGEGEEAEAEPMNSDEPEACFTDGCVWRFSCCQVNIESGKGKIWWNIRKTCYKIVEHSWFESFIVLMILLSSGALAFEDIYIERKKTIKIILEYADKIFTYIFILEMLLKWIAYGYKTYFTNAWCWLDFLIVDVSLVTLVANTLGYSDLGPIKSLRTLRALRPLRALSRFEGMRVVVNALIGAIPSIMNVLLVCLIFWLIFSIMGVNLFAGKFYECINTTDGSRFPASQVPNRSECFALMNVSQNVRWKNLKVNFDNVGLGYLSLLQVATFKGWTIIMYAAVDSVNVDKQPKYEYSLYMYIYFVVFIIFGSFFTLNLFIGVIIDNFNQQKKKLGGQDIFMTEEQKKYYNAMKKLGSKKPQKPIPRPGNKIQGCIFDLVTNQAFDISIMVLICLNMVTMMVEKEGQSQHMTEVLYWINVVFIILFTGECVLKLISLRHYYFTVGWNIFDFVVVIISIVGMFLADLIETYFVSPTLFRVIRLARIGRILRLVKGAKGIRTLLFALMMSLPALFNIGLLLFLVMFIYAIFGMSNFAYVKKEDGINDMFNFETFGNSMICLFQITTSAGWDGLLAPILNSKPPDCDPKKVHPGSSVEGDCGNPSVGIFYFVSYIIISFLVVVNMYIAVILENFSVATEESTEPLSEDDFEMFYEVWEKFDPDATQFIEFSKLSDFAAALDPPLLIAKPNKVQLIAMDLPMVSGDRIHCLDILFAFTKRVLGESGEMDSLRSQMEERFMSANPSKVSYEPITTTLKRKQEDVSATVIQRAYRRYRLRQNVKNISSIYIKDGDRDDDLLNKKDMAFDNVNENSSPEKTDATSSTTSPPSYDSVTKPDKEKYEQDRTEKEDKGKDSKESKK

COc1cc(-c2cc(F)cc(Cl)c2)c(F)cc1-n1c(=O)ccc2cc(S(=O)(=O)Nc3cc(C)ncn3)ccc21 [Example 933, 1-(3′-chloro-2,5′-difluoro-5-methoxy-4-biphenylyl)-N-(6-methyl-4-pyrimidinyl)-2-oxo-1,2-dihydro-6-quinolinesulfonamide]
IC50: 8 nM

COc1cc(-c2cc(F)cc(Cl)c2)c(F)cc1-n1c(=O)ccc2cc(S(=O)(=O)Nc3ccnc(C)n3)ccc21 [Example 934, 1-(3′-chloro-2,5′-difluoro-5-methoxy-4-biphenylyl)-N-(2-methyl-4-pyrimidinyl)-2-oxo-1,2-dihydro-6-quinolinesulfonamide]
IC50: 6 nM

COc1cc(-c2ccc(F)c(F)c2)c(F)cc1-n1c(=O)ccc2cc(S(=O)(=O)Nc3ncccn3)ccc21 [Example 935, 2-oxo-N-2-pyrimidinyl-1-(2,3′,4′-trifluoro-5-methoxy-4-biphenylyl)-1,2-dihydro-6-quinolinesulfonamide]
IC50: 22 nM

COc1cc(-c2ccc(F)c(F)c2)c(F)cc1-n1c(=O)ccc2cc(S(=O)(=O)Nc3ncco3)ccc21 [Example 936, N-1,3-oxazol-2-yl-2-oxo-1-(2,3′,4′-trifluoro-5-methoxy-4-biphenylyl)-1,2-dihydro-6-quinolinesulfonamide]
IC50: 41 nM

COc1cc(-c2ccc(F)c(F)c2)c(F)cc1-n1c(=O)ccc2cc(S(=O)(=O)Nc3ncc(F)cn3)ccc21 [Example 937, N-(5-fluoro-2-pyrimidinyl)-2-oxo-1-(2,3′,4′-trifluoro-5-methoxy-4-biphenylyl)-1,2-dihydro-6-quinolinesulfonamide]
IC50: 29 nM

COc1cc(-c2ccc(F)c(F)c2)c(F)cc1-n1c(=O)ccc2cc(S(=O)(=O)Nc3cc(C)ncn3)ccc21 [Example 938, N-(6-methyl-4-pyrimidinyl)-2-oxo-1-(2,3′,4′-trifluoro-5-methoxy-4-biphenylyl)-1,2-dihydro-6-quinolinesulfonamide]
IC50: 47 nM

COc1cc(-c2ccc(F)c(F)c2)c(F)cc1-n1c(=O)ccc2cc(S(=O)(=O)Nc3ccnc(C)n3)ccc21 [Example 939, N-(2-methyl-4-pyrimidinyl)-2-oxo-1-(2,3′,4′-trifluoro-5-methoxy-4-biphenylyl)-1,2-dihydro-6-quinolinesulfonamide]
IC50: 41 nM

COc1cc(-c2ccc(F)c(C)c2)c(F)cc1-n1c(=O)ccc2cc(S(=O)(=O)Nc3ncccn3)ccc21 [Example 940, 1-(2,4′-difluoro-5-methoxy-3′-methyl-4-biphenylyl)-2-oxo-N-2-pyrimidinyl-1,2-dihydro-6-quinolinesulfonamide]
IC50: 34 nM

COc1cc(-c2ccc(F)c(C)c2)c(F)cc1-n1c(=O)ccc2cc(S(=O)(=O)Nc3ncc(F)cn3)ccc21 [Example 942, 1-(2,4′-difluoro-5-methoxy-3′-methyl-4-biphenylyl)-N-(5-fluoro-2-pyrimidinyl)-2-oxo-1,2-dihydro-6-quinolinesulfonamide]
IC50: 31 nM

COc1cc(-c2ccc(F)c(C)c2)c(F)cc1-n1c(=O)ccc2cc(S(=O)(=O)Nc3ncco3)ccc21 [Example 943, 1-(2,4′-difluoro-5-methoxy-3′-methyl-4-biphenylyl)-N-1,3-oxazol-2-yl-2-oxo-1,2-dihydro-6-quinolinesulfonamide]
IC50: 13 nM

COc1cc(-c2ccc(F)c(C)c2)c(F)cc1-n1c(=O)ccc2cc(S(=O)(=O)Nc3ccnc(C)n3)ccc21 [Example 944, 1-(2,4′-difluoro-5-methoxy-3′-methyl-4-biphenylyl)-N-(2-methyl-4-pyrimidinyl)-2-oxo-1,2-dihydro-6-quinolinesulfonamide]
IC50: 27 nM

COc1cc(-c2ccc(F)c(C)c2)c(F)cc1-n1c(=O)ccc2cc(S(=O)(=O)Nc3cc(C)ncn3)ccc21 [Example 945, 1-(2,4′-difluoro-5-methoxy-3′-methyl-4-biphenylyl)-N-(6-methyl-4-pyrimidinyl)-2-oxo-1,2-dihydro-6-quinolinesulfonamide]
IC50: 34 nM

COc1cc(-c2cccc(C(F)(F)F)c2)ccc1-n1c(=O)ccc2cc(S(=O)(=O)Nc3cc(C)ncn3)ccc21 [Example 946, 1-(3-methoxy-3′-(trifluoromethyl)-4-biphenylyl)-N-(6-methyl-4-pyrimidinyl)-2-oxo-1,2-dihydro-6-quinolinesulfonamide]
IC50: 24 nM

COc1cc(-c2cccc(C(F)(F)F)c2)ccc1-n1c(=O)ccc2cc(S(=O)(=O)Nc3ccnc(C)n3)ccc21 [Example 947, 1-(3-methoxy-3′-(trifluoromethyl)-4-biphenylyl)-N-(2-methyl-4-pyrimidinyl)-2-oxo-1,2-dihydro-6-quinolinesulfonamide]
IC50: 51 nM

COc1cc(-c2ccc(F)c(C)c2)c(F)cc1-n1c(=O)ccc2cc(S(=O)(=O)Nc3nnc(C)s3)ccc21 [Example 948, 1-(2,4′-difluoro-5-methoxy-3′-methyl-4-biphenylyl)-N-(5-methyl-1,3,4-thiadiazol-2-yl)-2-oxo-1,2-dihydro-6-quinolinesulfonamide]
IC50: 100 nM

COc1cc(-c2cccc(C(F)(F)F)c2)ccc1-n1c(=O)ccc2cc(S(=O)(=O)Nc3cnc(C)cn3)ccc21 [Example 949, 1-(3-methoxy-3′-(trifluoromethyl)-4-biphenylyl)-N-(5-methyl-2-pyrazinyl)-2-oxo-1,2-dihydro-6-quinolinesulfonamide]
IC50: 1240 nM

COc1cc(-c2cccc(C(F)(F)F)c2)ccc1-n1c(=O)ccc2cc(S(=O)(=O)Nc3cncc(C)n3)ccc21 [Example 950, 1-(3-methoxy-3′-(trifluoromethyl)-4-biphenylyl)-N-(6-methyl-2-pyrazinyl)-2-oxo-1,2-dihydro-6-quinolinesulfonamide]
IC50: 99 nM

COc1cc(-c2ccccc2F)c(F)cc1-n1c(=O)ccc2cc(S(=O)(=O)Nc3ccon3)ccc21 [Example 951, 1-(2,2′-difluoro-5-methoxy-4-biphenylyl)-N-3-isoxazolyl-2-oxo-1,2-dihydro-6-quinolinesulfonamide]
IC50: 90 nM

COc1cc(-c2ccccc2Cl)c(F)cc1-n1c(=O)ccc2cc(S(=O)(=O)Nc3ccon3)ccc21 [Example 952, 1-(2′-chloro-2-fluoro-5-methoxy-4-biphenylyl)-N-3-isoxazolyl-2-oxo-1,2-dihydro-6-quinolinesulfonamide]
IC50: 62 nM

COc1cc(-c2ccccc2C)c(F)cc1-n1c(=O)ccc2cc(S(=O)(=O)Nc3ccon3)ccc21 [Example 953, 1-(2-fluoro-5-methoxy-2′-methyl-4-biphenylyl)-N-3-isoxazolyl-2-oxo-1,2-dihydro-6-quinolinesulfonamide]
IC50: 26 nM

COc1ccc(-c2cc(OC)c(-n3c(=O)ccc4cc(S(=O)(=O)Nc5ccon5)ccc43)cc2F)cc1 [Example 954, 1-(2-fluoro-4′,5-dimethoxy-4-biphenylyl)-N-3-isoxazolyl-2-oxo-1,2-dihydro-6-quinolinesulfonamide]
IC50: 71 nM

COc1ccccc1-c1cc(OC)c(-n2c(=O)ccc3cc(S(=O)(=O)Nc4ccon4)ccc32)cc1F [Example 956, 1-(2-fluoro-2′,5-dimethoxy-4-biphenylyl)-N-3-isoxazolyl-2-oxo-1,2-dihydro-6-quinolinesulfonamide]
IC50: 99 nM

COc1cc(F)cc(-c2cc(OC)c(-n3c(=O)ccc4cc(S(=O)(=O)Nc5ncccn5)ccc43)cc2C)c1 [Example 957, 1-(3′-fluoro-5,5′-dimethoxy-2-methyl-4-biphenylyl)-2-oxo-N-2-pyrimidinyl-1,2-dihydro-6-quinolinesulfonamide]
IC50: 23 nM

COc1cc(-c2ccc(F)c(F)c2)c(C)cc1-n1c(=O)ccc2cc(S(=O)(=O)Nc3ncccn3)ccc21 [Example 958, 1-(3′,4′-difluoro-5-methoxy-2-methyl-4-biphenylyl)-2-oxo-N-2-pyrimidinyl-1,2-dihydro-6-quinolinesulfonamide]
IC50: 28 nM

COc1cc(-c2cc(OC)c(-n3c(=O)ccc4cc(S(=O)(=O)Nc5ncccn5)ccc43)cc2C)ccc1F [Example 960, 1-(4′-fluoro-3′,5-dimethoxy-2-methyl-4-biphenylyl)-2-oxo-N-2-pyrimidinyl-1,2-dihydro-6-quinolinesulfonamide]
IC50: 36 nM

CCOc1cccc(-c2cc(OC)c(-n3c(=O)ccc4cc(S(=O)(=O)Nc5ncccn5)ccc43)cc2C)c1 [Example 963, 1-(3′-ethoxy-5-methoxy-2-methyl-4-biphenylyl)-2-oxo-N-2-pyrimidinyl-1,2-dihydro-6-quinolinesulfonamide]
IC50: 27 nM

COc1cc(-c2cccc(OC)c2F)c(C)cc1-n1c(=O)ccc2cc(S(=O)(=O)Nc3ncccn3)ccc21 [Example 964, 1-(2′-fluoro-3′,5-dimethoxy-2-methyl-4-biphenylyl)-2-oxo-N-2-pyrimidinyl-1,2-dihydro-6-quinolinesulfonamide]
IC50: 246 nM

COc1ccc(F)c(-c2cc(OC)c(-n3c(=O)ccc4cc(S(=O)(=O)Nc5ncccn5)ccc43)cc2C)c1 [Example 965, 1-(2′-fluoro-5,5′-dimethoxy-2-methyl-4-biphenylyl)-2-oxo-N-2-pyrimidinyl-1,2-dihydro-6-quinolinesulfonamide]
IC50: 74 nM

COc1cc(-c2cc(OC)c(-n3c(=O)ccc4cc(S(=O)(=O)Nc5ncccn5)ccc43)cc2C)ccc1C [Example 966, 1-(3′,5-dimethoxy-2,4′-dimethyl-4-biphenylyl)-2-oxo-N-2-pyrimidinyl-1,2-dihydro-6-quinolinesulfonamide]
IC50: 64 nM

COc1cc(C)cc(-c2cc(OC)c(-n3c(=O)ccc4cc(S(=O)(=O)Nc5ncccn5)ccc43)cc2C)c1 [Example 967, 1-(3′,5-dimethoxy-2,5′-dimethyl-4-biphenylyl)-2-oxo-N-2-pyrimidinyl-1,2-dihydro-6-quinolinesulfonamide]
IC50: 14 nM

COc1cc(-c2cccc(OC)c2C)c(C)cc1-n1c(=O)ccc2cc(S(=O)(=O)Nc3ncccn3)ccc21 [Example 968, 1-(3′,5-dimethoxy-2,2′-dimethyl-4-biphenylyl)-2-oxo-N-2-pyrimidinyl-1,2-dihydro-6-quinolinesulfonamide]
IC50: 57 nM

COc1cc(-c2cc(C)ccc2F)c(C)cc1-n1c(=O)ccc2cc(S(=O)(=O)Nc3ncccn3)ccc21 [Example 970, 1-(2′-fluoro-5-methoxy-2,5′-dimethyl-4-biphenylyl)-2-oxo-N-2-pyrimidinyl-1,2-dihydro-6-quinolinesulfonamide]
IC50: 24 nM

From patent publication US9212182B2, “Bicyclic sulfonamide compounds as sodium channel inhibitors” (AMGEN INC., priority 2013, dated 2015)
